Data from patent publication US11053204B2, “Pyrimidinyloxy benzene derivatives as herbicides” (FMC Corporation, priority 2015, dated 2021).

Key:
Type in all cases: in vivo
[1] = test system: barnyardgrass (Echinochloa crus-galli); assay: Test A postemergence, visual injury rating; settings: 0 to 100 scale, 0 is no effect, 100 is complete control, approximately 10 days
Procedure, shortened: (§1)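 Compounds in non-phytotoxic solvent with surfactant applied as soil spray preemergence, or postemergence to plants 2-10 cm at one- to two-leaf stage, in loam/sand. After approximately 10 days in greenhouse, injury rated visually versus untreated controls, 0 (no effect) to 100 (complete control).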

corn (Zea mays) = assay: Test A postemergence, visual injury rating; settings: 0 to 100 scale, 0 is no effect, 100 is complete control, approximately 10 days
Procedure, shortened: as §1

kochia (Kochia scoparia) [2] = assay: Test A postemergence, visual injury rating; settings: 0 to 100 scale, 0 is no effect, 100 is complete control, approximately 10 days
Procedure, shortened: as §1

[3] = test system: Italian ryegrass (Lolium multiflorum); assay: Test A postemergence, visual injury rating; settings: 0 to 100 scale, 0 is no effect, 100 is complete control, approximately 10 days
Procedure, shortened: as §1

[4] = test system: galium (catchweed bedstraw, Galium aparine); assay: Test A postemergence, visual injury rating; settings: 0 to 100 scale, 0 is no effect, 100 is complete control, approximately 10 days
Procedure, shortened: as §1

[5] = test system: wheat (Triticum aestivum); assay: Test A postemergence, visual injury rating; settings: 0 to 100 scale, 0 is no effect, 100 is complete control, approximately 10 days
Procedure, shortened: as §1

[6] = test system: giant foxtail (Setaria faberii); assay: Test A postemergence, visual injury rating; settings: 0 to 100 scale, 0 is no effect, 100 is complete control, approximately 10 days
Procedure, shortened: as §1

[7] = test system: pigweed (Amaranthus retroflexus); assay: Test A postemergence, visual injury rating; settings: 0 to 100 scale, 0 is no effect, 100 is complete control, approximately 10 days
Procedure, shortened: as §1

[8] = test system: blackgrass (Alopecurus myosuroides); assay: Test A postemergence, visual injury rating; settings: 0 to 100 scale, 0 is no effect, 100 is complete control, approximately 10 days
Procedure, shortened: as §1

[9] = test system: ragweed (common ragweed, Ambrosia elatior); assay: Test A postemergence, visual injury rating; settings: 0 to 100 scale, 0 is no effect, 100 is complete control, approximately 10 days
Procedure, shortened: as §1

[10] = test system: barnyardgrass (Echinochloa crus-galli); assay: Test B flooded paddy test, plant response rating; settings: 250 g ai/ha; Flood; scale of 0 to 100 where 0 is no effect and 100 is complete control; 13 to 15 days
Procedure, shortened: (§2)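 Greenhouse pots flooded to 3 cm above soil at time of treatment received compound via the water, which stayed at that level.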

[11] = test system: ducksalad (Heteranthera limosa); assay: Test B flooded paddy test, plant response rating; settings: 250 g ai/ha; Flood; scale of 0 to 100 where 0 is no effect and 100 is complete control; 13 to 15 days
Procedure, shortened: as §2

rice (Oryza sativa) = assay: Test B flooded paddy test, plant response rating; settings: 250 g ai/ha; Flood; scale of 0 to 100 where 0 is no effect and 100 is complete control; 13 to 15 days
Procedure, shortened: as §2

[12] = test system: sedge, umbrella (small-flower umbrella sedge, Cyperus difformis); assay: Test B flooded paddy test, plant response rating; settings: 250 g ai/ha; Flood; scale of 0 to 100 where 0 is no effect and 100 is complete control; 13 to 15 days
Procedure, shortened: as §2

[13] = test system: barnyardgrass (Echinochloa crus-galli); assay: Test A preemergence, visual injury rating
Procedure, shortened: as §1

kochia (Kochia scoparia) [14] = assay: Test A preemergence, visual injury rating
Procedure, shortened: as §1

[15] = test system: Italian ryegrass (Lolium multiflorum); assay: Test A preemergence, visual injury rating
Procedure, shortened: as §1

[16] = test system: giant foxtail (Setaria faberii); assay: Test A preemergence, visual injury rating
Procedure, shortened: as §1

[17] = test system: pigweed (Amaranthus retroflexus); assay: Test A preemergence, visual injury rating
Procedure, shortened: as §1

[18] = test system: ragweed (common ragweed, Ambrosia elatior); assay: Test A preemergence, visual injury rating
Procedure, shortened: as §1

[19] = 31 g ai/ha, 0 to 100 scale, 0 no effect, 100 complete control
[20] = 125 g ai/ha, 0 to 100 scale (0 no effect, 100 complete control)

Row | Compound | Barnyardgrass plant response rating ([1]; 31 g ai/ha) | Barnyardgrass plant response rating ([1]; 125 g ai/ha) | Corn plant response rating (corn (Zea mays); 31 g ai/ha) | Corn plant response rating (corn (Zea mays); 125 g ai/ha) | Kochia plant response rating (kochia (Kochia scoparia) [2]; 31 g ai/ha) | Kochia plant response rating (kochia (Kochia scoparia) [2]; 125 g ai/ha) | Ryegrass, Italian plant response rating ([3]; 31 g ai/ha) | Ryegrass, Italian plant response rating ([3]; 125 g ai/ha) | Galium plant response rating ([4]; 31 g ai/ha) | Galium plant response rating ([4]; 125 g ai/ha) | Wheat plant response rating ([5]; 31 g ai/ha) | Wheat plant response rating ([5]; 125 g ai/ha) | Foxtail, Giant plant response rating ([6]; 31 g ai/ha) | Foxtail, Giant plant response rating ([6]; 125 g ai/ha) | Pigweed plant response rating ([7]; 31 g ai/ha) | Pigweed plant response rating ([7]; 125 g ai/ha) | Blackgrass plant response rating ([8]; 31 g ai/ha) | Blackgrass plant response rating ([8]; 125 g ai/ha) | Ragweed plant response rating ([9]; 31 g ai/ha) | Ragweed plant response rating ([9]; 125 g ai/ha) | other results
1 | CCCC(C#N)c1c(Br)cccc1Oc1ncc(Cl)cn1 (stereo not drawn) [Compound 118] | 0 | 10 | 0 | 10 | 30 | 60 | 0 | 0 | 10 | 30 | 0 | 0 | 0 | 10 | 40 | 60 | 0 | 0 | 0 | 10 | Plant response rating, Barnyardgrass [10]: 0; Plant response rating, Ducksalad [11]: 0; Plant response rating, Rice (rice (Oryza sativa)): 0; Plant response rating, Sedge, Umbrella [12]: 50; Plant response rating, Barnyardgrass [13, 19]: 0; Plant response rating, Barnyardgrass [13, 20]: 0; Plant response rating, Kochia (kochia (Kochia scoparia) [14]; [19]): 0; Plant response rating, Kochia (kochia (Kochia scoparia) [14]; [20]): 0; Plant response rating, Ryegrass, Italian [15, 19]: 0; Plant response rating, Ryegrass, Italian [15, 20]: 0; Plant response rating, Foxtail, Giant [16, 19]: 0; Plant response rating, Foxtail, Giant [16, 20]: 20; Plant response rating, Pigweed [17, 19]: 20; Plant response rating, Pigweed [17, 20]: 50; Plant response rating, Ragweed [18, 19]: 100; Plant response rating, Ragweed [18, 20]: 50
2 | FC(F)(F)CCCCCc1c(Br)cccc1Oc1ncc(Cl)cn1 [Compound 121] | 20 | 40 | 10 | 10 | 20 | 80 | 10 | 20 | 70 | 80 | 10 | 10 | 10 | 70 | 80 | 100 | 20 | 30 | 20 | 50 | Plant response rating, Barnyardgrass [10]: 50; Plant response rating, Ducksalad [11]: 0; Plant response rating, Rice (rice (Oryza sativa)): 35; Plant response rating, Sedge, Umbrella [12]: 70; Plant response rating, Barnyardgrass [13, 19]: 0; Plant response rating, Barnyardgrass [13, 20]: 30; Plant response rating, Kochia (kochia (Kochia scoparia) [14]; [19]): 20; Plant response rating, Kochia (kochia (Kochia scoparia) [14]; [20]): 0; Plant response rating, Ryegrass, Italian [15, 19]: 10; Plant response rating, Ryegrass, Italian [15, 20]: 0; Plant response rating, Foxtail, Giant [16, 19]: 30; Plant response rating, Foxtail, Giant [16, 20]: 100; Plant response rating, Pigweed [17, 19]: 0; Plant response rating, Pigweed [17, 20]: 0; Plant response rating, Ragweed [18, 19]: 0; Plant response rating, Ragweed [18, 20]: 0
3 | FC(F)(F)CCCc1c(Cl)cccc1Oc1ncc(Cl)cn1 [Compound 122] | 10 | 50 | 10 | 20 | 80 | 80 | 0 | 20 | 30 | 60 | 0 | 0 | 10 | 40 | 70 | 100 | 20 | 60 | 0 | 10 | Plant response rating, Barnyardgrass [10]: 80; Plant response rating, Ducksalad [11]: 100; Plant response rating, Rice (rice (Oryza sativa)): 40; Plant response rating, Sedge, Umbrella [12]: 100; Plant response rating, Barnyardgrass [13, 19]: 30; Plant response rating, Barnyardgrass [13, 20]: 90; Plant response rating, Kochia (kochia (Kochia scoparia) [14]; [19]): 10; Plant response rating, Kochia (kochia (Kochia scoparia) [14]; [20]): 70; Plant response rating, Ryegrass, Italian [15, 19]: 0; Plant response rating, Ryegrass, Italian [15, 20]: 30; Plant response rating, Foxtail, Giant [16, 19]: 0; Plant response rating, Foxtail, Giant [16, 20]: 40; Plant response rating, Pigweed [17, 19]: 40; Plant response rating, Pigweed [17, 20]: 90; Plant response rating, Ragweed [18, 19]: 0; Plant response rating, Ragweed [18, 20]: 0
4 | O=C(OCCC1CC1)c1c(Br)cccc1Oc1ncc(Cl)cn1 [Compound 123] | 10 | 50 | 10 | 10 | 50 | 90 | 0 | 20 | 90 | 100 | 0 | 0 | 20 | 50 | 70 | 100 | 10 | 50 | 0 | 10 | Plant response rating, Barnyardgrass [10]: 40; Plant response rating, Ducksalad [11]: 95; Plant response rating, Rice (rice (Oryza sativa)): 35; Plant response rating, Sedge, Umbrella [12]: 95; Plant response rating, Barnyardgrass [13, 19]: 20; Plant response rating, Barnyardgrass [13, 20]: 70; Plant response rating, Kochia (kochia (Kochia scoparia) [14]; [19]): 0; Plant response rating, Kochia (kochia (Kochia scoparia) [14]; [20]): 10; Plant response rating, Ryegrass, Italian [15, 19]: 0; Plant response rating, Ryegrass, Italian [15, 20]: 20; Plant response rating, Foxtail, Giant [16, 19]: 40; Plant response rating, Foxtail, Giant [16, 20]: 100; Plant response rating, Pigweed [17, 19]: 0; Plant response rating, Pigweed [17, 20]: 80; Plant response rating, Ragweed [18, 19]: 0; Plant response rating, Ragweed [18, 20]: 0
